Marks after values point to notes of the source that are not given here.
How the values were obtained:
paclitaxel-treated rats = experiment: Paclitaxel-induced peripheral sensory neuropathy model, hyperalgesia (paw pressure) after i.v. administration; format: in vivo, rat
Description: (§1) Results are expressed as the minimum dose (via the indicated route) at which a statistically-significant difference is observed when compared to time-matched injured rats receiving a vehicle administration by the same route. An analysis of variance, ANOVA, followed by Fisher's protected least significant difference procedure for post hoc comparison, was used to verify significance between two means of hyperalgesic behavioral results from the Randall & Selitto apparatus paw pressure test (“anti-hyperalgesia”) or from the Von Frey test (“mechanical allodynia”) or from the Cold Plate test (“cold allodynia”). P values 0.05 were considered significant. This definition applies to any doses specified herein as inhibiting “in a statistically significant manner”.
(§2) Paw mechanical sensitivity was determined using a Randall & Selitto apparatus (Randall and Selitto, 1957) exerting a force that increases at constant rate (32 g/s). The stimulus causing paw withdrawal was evaluated before and at different times after treatment. Results represent the mean of mechanical thresholds for paw withdrawal expressed as grams. To avoid possible damage to the rat paw the maximum applied force was set at 240 g. In the single administration protocol, paw pressure tests were performed before (pre-dose) and at regular intervals after treatment.
Paclitaxel (2 mg/kg i.p.) was administered on days 1, 3, 5 and 8. Test compounds were dissolved in saline and administered intravenously at the dose of 1 mg/kg to adult male Sprague-Dawley rats (Charles River, Italy, 220-250 g weight). Data were obtained at 0-75 minutes after injection and are expressed as the mean±s.e.m. of six animals. *P<0.05 and **<0.01 vs vehicle+paclitaxel treated rats; °P<0.05 and ^°°P<0.01 vs. NT24336 (R) treated group. […] *P<0.05 and **<0.01 vss vehicle+paclitaxel treated rats.

[1] = tested on: streptozotocin-treated mice; experiment: Streptozotocin diabetic peripheral neuropathy model, thermal hyperalgesia after oral administration; format: in vivo, mouse; conditions: p.o.
Description: as §1
Mice (=30 g) were injected intravenously in the tail with 200 mg/kg streptozotocin (Wako Pure Chemicals, Richmond, Va.) prepared in saline adjusted to pH 4.5 in 0.1 N citrate buffer. Age-matched non-diabetic control mice were injected with the vehicle alone. Streptozotocin solutions were freshly prepared due to the limited stability of the compound. Animals were kept in a group of four per cage with special care of food and water supplement. The bed of the cage was changed every day. […] The serum glucose level was measured by glucose oxidase method from blood samples obtained by tail vein pricking. […] Animals at 7 days post-streptozotocin treatment were used in the study. […] Injections were performed using a Hamilton microliter syringe fitted with a 26-gauge needle, according to the method of Haley and McCormick (1957). The site of injection was 2 mm caudal and 2 lateral to the bregma, and 3 mm in depth from the skull surface. The injection volume was 5 μl.

CCI rats = experiment: Chronic constriction injury (CCI) model, mechanical allodynia after oral administration; format: in vivo, rat; conditions: p.o.
Description: as §1
Each animal was placed in a chamber with a mesh metal floor covered by a plastic dome that enabled the animal to walk freely, but not to jump. The mechanical stimulus was then delivered in the mid-plantar skin of left hind paw using an electronic von Frey apparatus (37400 Dynamic Plantar Aesthesiometer, Ugo Basile, Comerio, Varese, Italy). The cut-off was set at 50 g, while the increasing force rate (ramp duration) was set at 20 s. In the single administration protocol, pain threshold measurements have been performed before (pre-dose) and at regular intervals after treatment. In the repeated treatment protocol, the pre-test value was measured 13 h after the last administration; afterward the animals received a new administration and measures were performed at the described times. Results are expressed in […] and represent the mean±S.E.M. of mechanical thresholds.
To evaluate the effect of test compounds in comparison to vehicle or selected comparators on mechanical hyperalgesia, the chronic constriction injury models in rats, a widely accepted model of painful neuropathy (Wang and Wang, 2003) was chosen.
Neuropathy was induced according to the procedure described by Bennett and Xie ([…]). Briefly, rats were anaesthetized with chloral hydrate 400 mg/kg i.p. under aseptic conditions, the right common sciatic nerve was exposed at the level of the middle thigh by blunt dissection. Proximal to the trifurcation, the nerve was carefully freed from the surrounding connective tissue and four chromic cat gut ligatures (4-0, Ethicon, Norderstedt, Germany) were tied loosely around it with about 1 mm spacing. After hemostasis was confirmed, the incision was closed in layers. Then animals were allowed to recover from anesthesia and surgery and were kept one per cage with free access to water and standard laboratory chow. This procedure induces the appearance of hyperalgesia and allodynia in response to mechanical stimuli, which are evident 2-5 days after injury and reach their maximum severity in about 14 days.

MIA-treated rats = experiment: MIA-induced knee osteoarthritis model, mechanical hyperalgesia after i.v. administration; format: in vivo, rat
Description: as §1, §2
A single intra-articular injection of sodium monoiodoacetate (MIA) was introduced into the knee joint of rats according to the method described by Fernihough J et al., 2004. Sodium monoiodoacetate (MIA) inhibits chondrocyte metabolism leading to cartilage degradation in form of osteoarthritic-like focal lesions in the cartilage associated with subchondral bone thickening 14 days after administration (Guingamp et al., 1997). This model therefore can easily and quickly reproduce osteoarthritic-like lesions and functional impairment in rats, similar to that observed in human disease (Guzman et al., 2003). After 7 days post-injection, the inflammatory component subsides and the remaining pain is considered neuropathic in nature. Briefly, rats were deeply anaesthetized with diethyl ether. Following abolition of the hind paw pinch withdrawal reflex, a 27-gauge needle was introduced into the joint cavity between the tibial plateau and femoral condyles. Once in place, 2 mg of MIA were diluted in a volume of […] of 1% CMC (carboxymethylcellulose in water, Sigma-Aldrich, Italy) and injected into one knee joint and the rat was allowed to recover for 14 days prior to pain assessment.

scopolamine-treated mice = conditions: s.c., passive avoidance, cited from earlier work; for Amnesia reversal, %: at the lowest significant dose

Structure (SMILES)	Lowest dose at which paclitaxel-induced hyperalgesia is inhibited in a statistically significant manner (P < 0.05) (paclitaxel-treated rats; 15 min after administration)	Lowest dose at which paclitaxel-induced hyperalgesia is inhibited in a statistically significant manner (P < 0.05) (paclitaxel-treated rats; 30 min after administration) [mg/kg]	Lowest dose at which paclitaxel-induced hyperalgesia is inhibited in a statistically significant manner (P < 0.05) (paclitaxel-treated rats; 45 min after administration) [mg/kg]	Lowest dose at which streptozotocin-induced diabetese-like thermal hyperalgesia is inhibited in a statistically significant manner (P < 0.05) ([1]; 30 min after administration) [mg/kg]	Lowest dose at which streptozotocin-induced diabetese-like thermal hyperalgesia is inhibited in a statistically significant manner (P < 0.05) ([1]; 60 min after administration) [mg/kg]	Lowest dose at which streptozotocin-induced diabetese-like thermal hyperalgesia is inhibited in a statistically significant manner (P < 0.05) ([1]; 90 min after administration) [mg/kg]	Lowest dose at which CCI-induced mechanical allodynia is inhibited in a statistically significant manner (P < 0.05) (CCI rats; 30 min after administration) [mg/kg]	Lowest dose at which CCI-induced mechanical allodynia is inhibited in a statistically significant manner (P < 0.05) (CCI rats; 60 min after administration) [mg/kg]	Lowest dose at which CCI-induced mechanical allodynia is inhibited in a statistically significant manner (P < 0.05) (CCI rats; 90 min after administration) [mg/kg]	Lowest dose at which MIA-induced mechanical hyperalgesia is inhibited in a statistically significant manner (P < 0.05) (MIA-treated rats; 15 min after administration) [mg/kg]	Lowest dose at which MIA-induced mechanical hyperalgesia is inhibited in a statistically significant manner (P < 0.05) (MIA-treated rats; 30 min after administration) [mg/kg]	Lowest dose at which MIA-induced mechanical hyperalgesia is inhibited in a statistically significant manner (P < 0.05) (MIA-treated rats; 45 min after administration) [mg/kg]	Lowest dose at which streptozotocin-induced diabetese-like thermal hyperalgesia is inhibited in a statistically significant manner (P < 0.05) ([1]; 120 min after administration) [mg/kg]	Lowest dose at which paclitaxel-induced hyperalgesia is inhibited in a statistically significant manner (P < 0.05) (paclitaxel-treated rats; 60 min after administration) [mg/kg]	Amnesia reversal, % (scopolamine-treated mice) [%]	Lowest Dose at which scopolamine-induced amnesia is reversed in a statistically significant manner (P < 0.01) (scopolamine-treated mice) [mg/kg]
O=C1CCC2CN(S(=O)(=O)c3cccc(F)c3)CCN12 (centres unmarked) [NT-24782, 2-(3-fluorophenyl)sulfonyl-hexahydropyrrolo[1,2-a]pyrazin-6(2H)-one]	>3 mg/kg	>3	>3	–	–	–	–	–	–	–	–	–	–	–	–	–
O=C1CCC2CN(S(=O)(=O)c3cccc(F)c3)CCN12 (centres unmarked) [NT-24337, 2-(3-fluorophenyl)sulfonyl-hexahydropyrrolo[1,2-a]pyrazin-6(2H)-one]	3 mg/kg	3	3	10	10	10	1	1	3	3	3	3	–	–	–	–
CNCC[C@H](Oc1cccc2ccccc12)c1cccs1 [Duloxetine, reference compound]	–	–	–	30	30	30	–	–	–	–	–	–	30	–	–	–
O=C1CCC2CN(S(=O)(=O)c3ccc(F)cc3)CCN12 (racemic) [NT-24617, (RS)-2-[(4-fluorophenyl)sulfonyl]hexahydropyrrolo[1,2-a]pyrazin-6-one]	3* mg/kg	3	3	–	–	–	–	–	–	–	–	–	–	>3	100	0.001
O=C1CCC2CN(S(=O)(=O)c3ccc(F)cc3)CCN12 (centres unmarked) [NT-24266, 2-(4-fluorophenyl)sulfonyl-hexahydropyrrolo[1,2-a]pyrazin-6(2H)-one]	1 mg/kg	3	>10	–	–	–	–	–	–	–	–	–	–	–	75	0.001
O=C1CCC2CN(S(=O)(=O)c3ccc(F)cc3)CCN12 (centres unmarked) [NT-24234, 2-(4-fluorophenyl)sulfonyl-hexahydropyrrolo[1,2-a]pyrazin-6(2H)-one]	1 mg/kg	3	>10	–	–	–	–	–	–	–	–	–	–	–	78	0.003
